“Also recorded” adds a separate entry of the source.
Key:
L 1210 cells [1] = test: Cytotoxicity on L 1210 cells in culture; type: cell-based; details: read-out: ID50 (reduces by 50% the rate of growth of the cells); usually 24 to 48 hours contact
abdominal viscera = test: Peritonitis (adhesion and hardening of abdominal viscera); type: in vivo, mouse
Procedure: (§1) The solutions of these compounds were prepared extemporaneously.
As discussed above this problem seems to be linked to the presence of the 1,2-diaminocyclohexane ligand.

L 1210 cells [2] = test: Cellular penetration of platinum in vivo into L 1210 cells; parameters: species or system mouse (DBA/2); details: PHIC 150 mg/kg, two hours after treatment on D3
Procedure: DBA/2 mice received 10^6 L 1210 cells on D0 and were treated three days later with an amount of platinum compound equal to the LD0 in the healthy mouse. Two hours after treatment on D3, the animals were sacrificed. About 20.10^6 cells were extracted from the peritoneum and washed several times so as to eliminate the extra-cellular platinum and also any intracellular platinum which was not bound in a covalent manner with the cellular organelles. Platinum was monitored by atomic absorption for whole cells and also on the DNA which was purified by phenol extraction. […] This corresponds to 180.10^-16 g of platinum per leukemic cell. Under these conditions, one fixed platinum atom per 3000 nucleotides was found, i.e. a total of 1% of the amount which penetrated the cells was complexed to DNA. […] 10^-16 of platinum per cell.

DNA = test: Platinum fixed on DNA of L 1210 cells in vivo; parameters: species or system mouse (DBA/2); details: PDD 9 mg/kg, PHIC 150 mg/kg; two hours after treatment on D3
Procedure: DBA/2 mice received 10^6 L 1210 cells on D0 and were treated three days later with an amount of platinum compound equal to the LD0 in the healthy mouse. Two hours after treatment on D3, the animals were sacrificed. […] Platinum was monitored by atomic absorption for whole cells and also on the DNA which was purified by phenol extraction. […] Under these conditions, one fixed platinum atom per 3000 nucleotides was found, i.e. a total of 1% of the amount which penetrated the cells was complexed to DNA. […] 10^-16 of platinum per cell.

[3] = Stability in sodium chloride solution; type: physicochemical; details: 9% sodium chloride
Procedure: This compound has an exceptionally high degree of solubility.
as §1

Question: Which IC50 (L 1210 cells [1]) does the source give for NC1CCCCC1N.O=C([O-])CC(C(=O)[O-])C([O-])C(=O)[O-].[H+].[H+].[Pt+2] (stereo not drawn) [PHIC, cis-isocitrato (1,2-diaminocyclohexane) platinum (II)] here?
Answer: 420 nM

Question: What about the peritonitis (abdominal viscera; healthy mice, i.p. injection) of the same molecule?
Answer: also observed in healthy mice

Question: And the “occurrence of peritonitis in relation to the 1,2-diaminocyclohexane ligand” value (abdominal viscera; i.p.)?
Answer: seems to be correlated with the presence of 1,2-diaminocyclohexane

Question: And the “peritonitis / long-term toxic effect” value (abdominal viscera; i.v. administration)?
Answer: never encountered; also recorded: not observed

Question: And the peritonitis (abdominal viscera; tumour-bearing mice, i.p. treatment)?
Answer: most of the mice reaching 30 days of survival treatment with PHM and PHIC developed peritonitis; also recorded: causes peritonitis

Question: And the “Amount of penetrating platinum per cell” value (L 1210 cells [2]; PDD 9 mg/kg)?
Answer: 7e-14 g

Question: And the “platinum per cell” value (L 1210 cells [2])?
Answer: 700. 10^-16

Question: And the “Number of fixed platinum atoms per nucleotide on DNA” value (DNA)?
Answer: 1/3500

Question: What about the “amount that penetrated the cells which was complexed to DNA” value (DNA) of the same molecule?
Answer: 1%

Question: And the “nucleotides per one fixed platinum atom” value (DNA)?
Answer: 3500 nucleotides

Question: What about the “change to chlorinated derivative in sodium chloride solution” value [3] of the same molecule?
Answer: changing in 24 hours to a yellow chlorinated derivative which precipitates

From patent US4452812A, “Organic complex of platinum, its preparation and its use for treating malignant tumors” (Sanofi, priority 1980, dated 1984)
